Test results reported in ChEMBL document CHEMBL4339226, “Novel Compounds Targeting the RNA-Binding Protein HuR. Structure-Based Design, Synthesis, and Interaction Studies” (ACS Med Chem Lett, 2019).
The source made the active and inactive calls. The calls are words filed in the database; no cut-off is given here.

Experiments:
[1] = molecular target: ELAV-like protein 1 (Homo sapiens) (UniProt Q15717); assay: Binding affinity to HuR (unknown origin) assessed as absolute STD percentage for ring B moiety by 1H-STD-NMR spectroscopic analysis
[2] = molecular target: ELAV-like protein 1 (Homo sapiens) (UniProt Q15717); assay: Binding affinity to HuR (unknown origin) assessed as absolute STD percentage for ring A moiety by 1H-STD-NMR spectroscopic analysis
[3] = molecular target: ELAV-like protein 1 (Homo sapiens) (UniProt Q15717); assay: Binding affinity to HuR (unknown origin) assessed as absolute STD percentage for ring C moiety by 1H-STD-NMR spectroscopic analysis
[4] = Solubility of the compound; format: physicochemical
[5] = molecular target: ELAV-like protein 1 (Homo sapiens) (UniProt Q15717); assay: Binding affinity to HuR (unknown origin) assessed as absolute STD percentage for isopropyl moiety by 1H-STD-NMR spectroscopic analysis
[6] = molecular target: ELAV-like protein 1 (Homo sapiens) (UniProt Q15717); assay: Binding affinity to HuR (unknown origin) assessed as absolute STD percentage for pyridone moiety by 1H-STD-NMR spectroscopic analysis
[7] = molecular target: ELAV-like protein 1 (Homo sapiens) (UniProt Q15717); assay: Binding affinity to HuR (unknown origin) assessed as absolute STD percentage for protons of the amino chain (H14, H15, and H16) by 1H-STD-NMR spectroscopic analysis

Chain of ELAV-like protein 1 (Homo sapiens) (Q15717 whole entry): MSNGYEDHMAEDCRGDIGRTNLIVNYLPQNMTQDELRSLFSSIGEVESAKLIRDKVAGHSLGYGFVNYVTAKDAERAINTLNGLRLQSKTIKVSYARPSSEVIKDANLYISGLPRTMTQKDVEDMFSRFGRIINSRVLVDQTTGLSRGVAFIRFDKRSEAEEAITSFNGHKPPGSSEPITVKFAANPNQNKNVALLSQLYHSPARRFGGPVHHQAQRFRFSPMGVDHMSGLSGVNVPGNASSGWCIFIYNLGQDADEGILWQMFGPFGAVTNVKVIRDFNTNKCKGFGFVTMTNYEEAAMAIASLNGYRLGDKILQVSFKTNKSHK

Row | Compound | Activity [1] | Activity [2] | Activity [3] | solubility [4] | Activity [5] | Activity [6] | Activity [7]
1 | O=C(c1ccc(O)cc1)N(CCc1cc(O)cc(O)c1)Cc1cccc(Cl)c1 | 0.36% | 0.4% | 0.25% |  |  |  | 
2 | COc1cc(OC)cc(-c2nc3sccn3c2NCCNC(=O)OCc2ccccc2)c1.Cl |  |  |  | Insoluble |  |  | 
3 | CC(C)Cn1cnc(-c2cccc(Oc3ccccc3)c2)c1-c1ccc(=O)[nH]c1 |  |  |  |  | 0.3% | 1.2% | 
4 | COc1cc(OC)cc([C@@H]2[C@@H](C(=O)NCCNCc3ccccc3)CCC(=O)N2CC(C)C)c1 (racemic) | 0.03% | 0.2% |  |  | 0.4% |  | inactive
